#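 Briefly, cells in 96-well plates were exposed to five compound concentrations for 48 h, and endpoints were estimated by linear interpolation. TGI: concentration producing complete growth inhibition.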
# Key:
# Assay in all cases: growth of human tumour cells (NCI), 48 h
# ACHN renal = tested on: ACHN renal
# COLO 205 colon = tested on: COLO 205 colon
# SK-MEL-5 melanoma = tested on: SK-MEL-5 melanoma
# CAKI-1 renal = tested on: CAKI-1 renal
# NCI/ADR-RES ovarian = tested on: NCI/ADR-RES ovarian
# SF-295 CNS = tested on: SF-295 CNS
# KM12 colon = tested on: KM12 colon
# MCF7 breast = tested on: MCF7 breast
# SK-MEL-2 melanoma = tested on: SK-MEL-2 melanoma
# SF-539 CNS = tested on: SF-539 CNS
# HCT-116 colon = tested on: HCT-116 colon
# OVCAR-5 ovarian = tested on: OVCAR-5 ovarian
# UACC-257 melanoma = tested on: UACC-257 melanoma
# CCRF-CEM leukemia = tested on: CCRF-CEM leukemia
# HOP-62 NSCLC = tested on: HOP-62 NSCLC
# 786-0 renal = tested on: 786-0 renal
# SR leukemia = tested on: SR leukemia
# K-562 leukemia = tested on: K-562 leukemia
# TK-10 renal = tested on: TK-10 renal
# SNB-75 CNS = tested on: SNB-75 CNS
# MDA-MB-231 breast = tested on: MDA-MB-231 breast
# RPMI-8226 leukemia = tested on: RPMI-8226 leukemia
# DU-145 prostate = tested on: DU-145 prostate
# SW-620 colon = tested on: SW-620 colon
# OVCAR-4 ovarian = tested on: OVCAR-4 ovarian
# M14 melanoma = tested on: M14 melanoma
# OVCAR-3 ovarian = tested on: OVCAR-3 ovarian
# HT29 colon = tested on: HT29 colon
# A498 renal = tested on: A498 renal
# SK-MEL-28 melanoma = tested on: SK-MEL-28 melanoma
# OVCAR-8 ovarian = tested on: OVCAR-8 ovarian
# NCI-H23 lung = tested on: NCI-H23 lung
# SK-OV-3 ovarian = tested on: SK-OV-3 ovarian
# IGROV1 ovarian = tested on: IGROV1 ovarian
# PC-3 prostate = tested on: PC-3 prostate
# U251 CNS = tested on: U251 CNS
# LOX IMVI melanoma = tested on: LOX IMVI melanoma
# T-47D breast = tested on: T-47D breast
# EKVX NSCLC = tested on: EKVX NSCLC
# HS 578T breast = tested on: HS 578T breast
# HL-60(TB) leukemia = tested on: HL-60(TB) leukemia
# MALME-3M melanoma = tested on: MALME-3M melanoma
# HCT-15 colon = tested on: HCT-15 colon
# A549 NSCLC = tested on: A549 NSCLC
# SN12C renal = tested on: SN12C renal
# HCC-2998 colon = tested on: HCC-2998 colon
# MDA-N = tested on: MDA-N
# UO-31 renal = tested on: UO-31 renal
# SF-268 CNS = tested on: SF-268 CNS
# MOLT-4 leukemia = tested on: MOLT-4 leukemia
# NCI-H460 lung = tested on: NCI-H460 lung
# SNB-19 CNS = tested on: SNB-19 CNS
# UACC-62 melanoma = tested on: UACC-62 melanoma
# MDA-MB-435 = tested on: MDA-MB-435
# RXF 393 renal = tested on: RXF 393 renal
# NCI-H522 lung = tested on: NCI-H522 lung
# HOP-92 NSCLC = tested on: HOP-92 NSCLC
# NCI-H226 lung = tested on: NCI-H226 lung
smiles,measurement,setting,value
CC1CN=C(N(Cc2ccc(F)cc2)C(=O)Nc2ccc(Cl)cc2)S1 (stereo unspecified),TGI,ACHN renal,> 100 µM
same,TGI,COLO 205 colon,> 100 µM
same,TGI,SK-MEL-5 melanoma,29.4 µM
same,TGI,CAKI-1 renal,> 100 µM
same,TGI,NCI/ADR-RES ovarian,> 100 µM
same,TGI,SF-295 CNS,> 100 µM
same,TGI,KM12 colon,> 100 µM
same,TGI,MCF7 breast,64 µM
same,TGI,SK-MEL-2 melanoma,37.5 µM
same,TGI,SF-539 CNS,> 100 µM
same,TGI,HCT-116 colon,> 100 µM
same,TGI,OVCAR-5 ovarian,> 100 µM
same,TGI,UACC-257 melanoma,> 100 µM
same,TGI,CCRF-CEM leukemia,> 100 µM
same,TGI,HOP-62 NSCLC,> 100 µM
same,TGI,786-0 renal,> 100 µM
same,TGI,SR leukemia,> 100 µM
same,TGI,K-562 leukemia,> 100 µM
same,TGI,TK-10 renal,> 100 µM
same,TGI,SNB-75 CNS,> 100 µM
same,TGI,MDA-MB-231 breast,> 100 µM
same,TGI,RPMI-8226 leukemia,> 100 µM
same,TGI,DU-145 prostate,> 100 µM
same,TGI,SW-620 colon,> 100 µM
same,TGI,OVCAR-4 ovarian,> 100 µM
same,TGI,M14 melanoma,17.4 µM
same,TGI,OVCAR-3 ovarian,> 100 µM
same,TGI,HT29 colon,65.8 µM
same,TGI,A498 renal,67.4 µM
same,TGI,SK-MEL-28 melanoma,71.7 µM
same,TGI,OVCAR-8 ovarian,> 100 µM
same,TGI,NCI-H23 lung,> 100 µM
same,TGI,SK-OV-3 ovarian,> 100 µM
same,TGI,IGROV1 ovarian,> 100 µM
same,TGI,PC-3 prostate,> 100 µM
same,TGI,U251 CNS,> 100 µM
same,TGI,LOX IMVI melanoma,54.5 µM
same,TGI,T-47D breast,> 100 µM
same,TGI,EKVX NSCLC,69.2 µM
same,TGI,HS 578T breast,> 100 µM
same,TGI,HL-60(TB) leukemia,91 µM
same,TGI,MALME-3M melanoma,> 100 µM
same,TGI,HCT-15 colon,> 100 µM
same,TGI,A549 NSCLC,> 100 µM
same,TGI,SN12C renal,> 100 µM
same,TGI,HCC-2998 colon,76.6 µM
same,TGI,MDA-N,61.1 µM
same,TGI,UO-31 renal,> 100 µM
same,TGI,SF-268 CNS,> 100 µM
same,TGI,MOLT-4 leukemia,> 100 µM
same,TGI,NCI-H460 lung,> 100 µM
same,TGI,SNB-19 CNS,> 100 µM
N#C/C(C(=O)Nc1ccccc1)=C(/N)N1CCCC1,TGI,ACHN renal,> 100 µM
same,TGI,COLO 205 colon,> 100 µM
same,TGI,SK-MEL-5 melanoma,> 100 µM
same,TGI,CAKI-1 renal,> 100 µM
same,TGI,NCI/ADR-RES ovarian,> 100 µM
same,TGI,SF-295 CNS,> 100 µM
same,TGI,UACC-62 melanoma,> 100 µM
same,TGI,KM12 colon,> 100 µM
same,TGI,SK-MEL-2 melanoma,> 100 µM
same,TGI,SF-539 CNS,> 100 µM
same,TGI,HCT-116 colon,> 100 µM
same,TGI,OVCAR-5 ovarian,> 100 µM
same,TGI,UACC-257 melanoma,> 100 µM
same,TGI,CCRF-CEM leukemia,> 100 µM
same,TGI,HOP-62 NSCLC,> 100 µM
same,TGI,786-0 renal,> 100 µM
same,TGI,SR leukemia,> 100 µM
same,TGI,K-562 leukemia,> 100 µM
same,TGI,TK-10 renal,> 100 µM
same,TGI,MDA-MB-231 breast,> 100 µM
same,TGI,RPMI-8226 leukemia,> 100 µM
same,TGI,DU-145 prostate,> 100 µM
same,TGI,SW-620 colon,> 100 µM
same,TGI,OVCAR-4 ovarian,> 100 µM
same,TGI,M14 melanoma,> 100 µM
same,TGI,OVCAR-3 ovarian,> 100 µM
same,TGI,HT29 colon,> 100 µM
same,TGI,A498 renal,> 100 µM
same,TGI,SK-MEL-28 melanoma,> 100 µM
same,TGI,OVCAR-8 ovarian,> 100 µM
same,TGI,NCI-H23 lung,> 100 µM
same,TGI,SK-OV-3 ovarian,> 100 µM
same,TGI,IGROV1 ovarian,> 100 µM
same,TGI,PC-3 prostate,> 100 µM
same,TGI,U251 CNS,> 100 µM
same,TGI,LOX IMVI melanoma,> 100 µM
same,TGI,T-47D breast,> 100 µM
same,TGI,EKVX NSCLC,> 100 µM
same,TGI,MDA-MB-435,> 100 µM
same,TGI,HS 578T breast,> 100 µM
same,TGI,HL-60(TB) leukemia,> 100 µM
same,TGI,MALME-3M melanoma,> 100 µM
same,TGI,HCT-15 colon,> 100 µM
same,TGI,A549 NSCLC,> 100 µM
same,TGI,SN12C renal,> 100 µM
same,TGI,HCC-2998 colon,> 100 µM
same,TGI,RXF 393 renal,> 100 µM
same,TGI,MDA-N,> 100 µM
same,TGI,NCI-H522 lung,> 100 µM
same,TGI,UO-31 renal,> 100 µM
same,TGI,HOP-92 NSCLC,> 100 µM
same,TGI,SF-268 CNS,> 100 µM
same,TGI,NCI-H226 lung,> 100 µM
same,TGI,MOLT-4 leukemia,> 100 µM
same,TGI,NCI-H460 lung,> 100 µM
same,TGI,SNB-19 CNS,> 100 µM
O=C(Nc1ccccn1)/C(=C\C(=O)c1ccc(Cl)cc1)Nc1ccccc1,TGI,COLO 205 colon,> 10 µM
same,TGI,SK-MEL-5 melanoma,> 10 µM
same,TGI,CAKI-1 renal,> 10 µM
same,TGI,SF-295 CNS,> 10 µM
same,TGI,UACC-62 melanoma,> 10 µM
same,TGI,KM12 colon,> 10 µM
same,TGI,MCF7 breast,> 10 µM
same,TGI,UACC-257 melanoma,> 10 µM
same,TGI,CCRF-CEM leukemia,> 10 µM
same,TGI,HOP-62 NSCLC,> 10 µM
same,TGI,786-0 renal,> 10 µM
same,TGI,SR leukemia,> 10 µM
same,TGI,K-562 leukemia,> 10 µM
same,TGI,TK-10 renal,> 10 µM
same,TGI,SNB-75 CNS,> 10 µM
same,TGI,MDA-MB-231 breast,> 10 µM
same,TGI,RPMI-8226 leukemia,> 10 µM
same,TGI,DU-145 prostate,> 10 µM
same,TGI,SW-620 colon,> 10 µM
same,TGI,OVCAR-4 ovarian,> 10 µM
same,TGI,M14 melanoma,> 10 µM
same,TGI,HT29 colon,> 10 µM
same,TGI,SK-MEL-28 melanoma,> 10 µM
same,TGI,OVCAR-8 ovarian,> 10 µM
same,TGI,NCI-H23 lung,> 10 µM
same,TGI,SK-OV-3 ovarian,> 10 µM
same,TGI,IGROV1 ovarian,> 10 µM
same,TGI,PC-3 prostate,> 10 µM
same,TGI,LOX IMVI melanoma,> 10 µM
same,TGI,T-47D breast,> 10 µM
same,TGI,EKVX NSCLC,> 10 µM
same,TGI,MDA-MB-435,> 10 µM
same,TGI,HL-60(TB) leukemia,> 10 µM
same,TGI,MALME-3M melanoma,> 10 µM
same,TGI,HCT-15 colon,> 10 µM
same,TGI,A549 NSCLC,> 10 µM
same,TGI,SN12C renal,> 10 µM
same,TGI,HCC-2998 colon,> 10 µM
same,TGI,RXF 393 renal,> 10 µM
same,TGI,MDA-N,> 10 µM
same,TGI,HOP-92 NSCLC,> 10 µM
same,TGI,SF-268 CNS,> 10 µM
same,TGI,MOLT-4 leukemia,> 10 µM

# — PubChem BioAssay (NCI)
